Like-named read-outs stand apart in the source and are kept apart here.
Experiments:
rat = conditions: cited from earlier work
[1] = High-throughput Adh activity assay in E. coli cell lysates; format: biochemical; conditions: reduction of isovaleraldehyde to isopentanol; secondary screen
Protocol: Cell growth and enzyme preparation. Strains harboring library plasmids were transformed into an E. coli T7 expression host. 5 μL/well of thawed glycerol stocks were stamped into 500 μL/well of LB+100 ug/mL Carbenicillin (LB-Carb100) in half-height deepwell plates, which were sealed with AeraSeals. Samples were incubated at 37° C. and shaken at 1000 RPM in 80% humidity overnight. 50 μL/well of the resulting precultures were stamped into 450 μL/well of LB-Carb100+1 mM IPTG in half-height deepwell plates, which were sealed with AeraSeals. Samples were incubated at 30° C. and shaken at 1000 RPM in 80% humidity overnight. […]
10 uL of lysate was transferred to a half-area flat-bottom plate containing 90 uL/well assay buffer (50 mM MOPS buffer, 0.4 mM NADH, and 30 mM isovaleraldehyde, pH 7.0). Optical absorbance measurements were taken on a plate reader at 340 nm for 10 minutes. […]
To screen the 3×˜1300-member enzyme libraries, high-throughput methods were developed to screen for LeuDH, KivD, and Adh enzyme activities in E. coli cell lysates. […] Cells were lysed, and enzyme activity was measured in cell lysates using enzyme-specific spectrophotometric assays described above in the method section. […]
For each enzyme family, the full library (˜1300 members each) was measured in biological duplicate, and hits were selected based on the highest activity in a single replicate for each enzyme. […]

Molecule	Oral LD50 (rat) (rat; oral)	further results
CCC(C)CO (stereo not drawn) [2-methylbutanol]	4170 mg/kg	–
CC(C)CC=O [Isovaleraldehyde]	5740 mg/kg	–
CC(C)C(=O)O [Isobutyric acid]	2230 mg/kg	–
CC(C)CCO [Isopentanol]	>5000 mg/kg	Oral NOAEL* (rat) (No-Observed-Adverse-Effect) (rat; in vivo, po): 1250 mg/kg/day
CC(C)CO [Isobutanol]	3350 mg/kg	Oral NOAEL* (rat) (No-Observed-Adverse-Effect) (rat; oral): >1450 mg/kg/day
CCC(C)C=O (stereo not drawn) [2-methylbutyraldehyde]	6884 mg/kg	–
ADH2 enzyme from S. cerevisiae: parent alcohol dehydrogenase ADH2 from S. cerevisiae (protein, UniProt P00331 2-348, looked up) Alcohol dehydrogenase 2: SIPETQKAIIFYESNGKLEHKDIPVPKPKPNELLINVKYSGVCHTDLHAWHGDWPLPTKLPLVGGHEGAGVVVGMGENVKGWKIGDYAGIKWLNGSCMACEYCELGNESNCPHADLSGYTHDGSFQEYATADAVQAAHIPQGTDLAEVAPILCAGITVYKALKSANLRAGHWAAISGAAGGLGSLAVQYAKAMGYRVLGIDGGPGKEELFTSLGGEVFIDFTKEKDIVSAVVKATNGGAHGIINVSVSEAAIEASTRYCRANGTVVLVGLPAGAKCSSDVFNHVVKSISIVGSYVGNRADTREALDFFARGLVKSPIKVVGLSSLPEIYEKMEKGQIAGRYVVDTSK	–	increase in Adh activity relative to the background lysate activity [1]: did not exhibit activity greater than the background lysate alcohol dehydrogenase activity
